We go through ten compounds from ChEMBL document CHEMBL5223133, “A review of MMP-2 structures and binding mode analysis of its inhibitors to strategize structure-based drug design” (Bioorg Med Chem, 2022).

Assay [1] has as its target T1, 72 kDa type IV collagenase (Homo sapiens, UniProt P08253). Kind of assay: Inhibition of MMP2 (unknown origin).
Target sequence in this assay (P08253 whole entry): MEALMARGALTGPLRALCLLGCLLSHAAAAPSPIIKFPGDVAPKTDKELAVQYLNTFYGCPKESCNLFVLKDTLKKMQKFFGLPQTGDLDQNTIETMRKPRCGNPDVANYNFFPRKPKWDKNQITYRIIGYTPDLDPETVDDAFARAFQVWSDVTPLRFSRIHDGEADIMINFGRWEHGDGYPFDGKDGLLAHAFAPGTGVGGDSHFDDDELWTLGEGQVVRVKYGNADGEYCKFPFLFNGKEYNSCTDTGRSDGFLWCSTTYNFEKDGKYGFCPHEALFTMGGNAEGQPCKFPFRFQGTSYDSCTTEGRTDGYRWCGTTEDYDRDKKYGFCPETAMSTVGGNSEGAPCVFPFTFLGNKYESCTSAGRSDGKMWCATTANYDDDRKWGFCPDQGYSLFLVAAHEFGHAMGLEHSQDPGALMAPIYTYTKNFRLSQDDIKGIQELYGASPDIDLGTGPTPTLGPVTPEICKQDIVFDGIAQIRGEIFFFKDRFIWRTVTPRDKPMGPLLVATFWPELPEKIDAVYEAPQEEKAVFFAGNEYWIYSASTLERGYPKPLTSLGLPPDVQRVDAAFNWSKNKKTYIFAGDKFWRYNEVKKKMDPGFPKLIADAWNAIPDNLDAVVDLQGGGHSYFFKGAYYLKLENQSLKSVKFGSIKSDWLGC
The target of assay [2] is T1, 72 kDa type IV collagenase. As to the kind of experiment: Inhibition of human MMP2.
Target sequence in this assay (P08253 whole entry): as above
Assay [3] deals with T1, 72 kDa type IV collagenase. As to the kind of experiment: Inhibition of MMP2 (unknown origin) gelatinase activity at >= 7.5 uM incubated for 24 hrs by modified zymography assay.
Target sequence in this assay (P08253 110-660 limits assumed): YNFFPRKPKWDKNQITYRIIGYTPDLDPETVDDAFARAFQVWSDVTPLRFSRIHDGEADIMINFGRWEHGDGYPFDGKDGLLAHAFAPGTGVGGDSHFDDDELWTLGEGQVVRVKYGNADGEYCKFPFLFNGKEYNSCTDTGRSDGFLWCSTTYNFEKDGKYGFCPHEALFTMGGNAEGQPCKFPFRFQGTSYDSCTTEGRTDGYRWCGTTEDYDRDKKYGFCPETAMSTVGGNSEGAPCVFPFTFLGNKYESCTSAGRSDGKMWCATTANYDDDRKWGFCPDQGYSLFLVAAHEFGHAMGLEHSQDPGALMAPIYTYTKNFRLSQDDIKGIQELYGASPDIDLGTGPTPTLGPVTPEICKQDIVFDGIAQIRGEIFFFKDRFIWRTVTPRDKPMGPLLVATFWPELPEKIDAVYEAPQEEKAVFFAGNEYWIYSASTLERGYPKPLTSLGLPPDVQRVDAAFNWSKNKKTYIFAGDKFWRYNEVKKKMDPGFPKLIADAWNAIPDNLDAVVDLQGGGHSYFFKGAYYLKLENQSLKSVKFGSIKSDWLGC
The target in assay [4] is T1, 72 kDa type IV collagenase. Kind of assay: Inhibition of MMP2 (unknown origin) gelatinase activity at 5 to 20 uM incubated for 24 hrs by modified zymography assay. The conditions noted are these: dose 5-20 µM.
Target sequence in this assay (P08253 110-660 limits assumed): as above
Assay [5] concerns the target Matrix metalloproteinase-9 (Homo sapiens) (UniProt P14780). Kind of assay: Inhibition of MMP9 (unknown origin) gelatinase activity at 5 to 20 uM incubated for 24 hrs by modified zymography assay. The note with it: dose 5-20 µM.
The target is the same in assay [6]. As to the kind of experiment: Inhibition of MMP9 (unknown origin) gelatinase activity at >= 7.5 uM incubated for 24 hrs by modified zymography assay.
A further assay has as its system A549. Kind of assay: Anticancer activity against human A549 cells assessed as cell survival measured after 48 hrs by MTT assay. It is filed as functional, cell-based. The note with it: A549, 48 h.

SMILES strings stand for the structures. The source made the active and inactive calls. The calls are words filed in the database; no cut-off is given here.

Chain of Matrix metalloproteinase-9 (Homo sapiens) (P14780 whole entry): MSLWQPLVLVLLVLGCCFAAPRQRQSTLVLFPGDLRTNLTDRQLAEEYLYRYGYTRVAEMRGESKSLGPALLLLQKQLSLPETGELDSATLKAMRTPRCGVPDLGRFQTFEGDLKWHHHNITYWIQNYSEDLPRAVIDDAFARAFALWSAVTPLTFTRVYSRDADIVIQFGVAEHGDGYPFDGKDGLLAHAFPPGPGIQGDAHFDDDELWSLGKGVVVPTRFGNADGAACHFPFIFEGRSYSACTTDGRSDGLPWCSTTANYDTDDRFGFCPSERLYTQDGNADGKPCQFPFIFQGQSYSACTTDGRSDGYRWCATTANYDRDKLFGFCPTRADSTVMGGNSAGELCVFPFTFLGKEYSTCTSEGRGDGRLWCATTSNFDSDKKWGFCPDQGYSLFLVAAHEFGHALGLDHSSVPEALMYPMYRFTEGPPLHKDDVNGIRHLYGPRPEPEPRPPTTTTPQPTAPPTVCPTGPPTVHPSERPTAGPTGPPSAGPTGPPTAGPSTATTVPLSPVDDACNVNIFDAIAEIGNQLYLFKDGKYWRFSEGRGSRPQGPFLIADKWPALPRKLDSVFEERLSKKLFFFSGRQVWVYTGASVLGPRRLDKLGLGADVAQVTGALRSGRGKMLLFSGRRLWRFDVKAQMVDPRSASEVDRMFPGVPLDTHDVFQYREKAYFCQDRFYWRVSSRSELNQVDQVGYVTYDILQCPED

As for `CNC(=O)[C@@H](NC(=O)c1ccc(-c2ccc(OCc3ccn[nH]3)cn2)o1)C1CCCCC1`, the IC50 (commonly the concentration at which inhibition is half-maximal) in assay [1] turned out to be 0.036 µM. For the compound `CCCCCCCC/C=C/CCCCCCCC(=O)O` [ELAIDIC ACID], in assay [2], half-maximal inhibition (IC50) was put at 2 µM. In the case of `c1cc2nc(c1)CNCCNCCCNCCNC2`, the inhibition in assay [3] and in assay [6] was 100% in each case. For the same compound, the inhibition entry in assay [4] and in assay [5] was “Active” throughout. On to `Cc1cc(=O)c(O)c(C(=O)NCc2ccc(-c3ccccc3)cc2)o1`, for which the IC50 in assay [1] came to 0.61 µM.

Regarding `N#Cc1ccc(Oc2ccc(S(=O)(=O)N3CCc4c([nH]c5ccccc45)C3C(=O)NO)cc2)cc1` (stereo unspecified), the IC50 in assay [1] is 0.15 µM. Compound `CCCCCCCC/C=C\CCCCCCCC(=O)NNC(=O)[C@H](Cc1cc2ccccc2[nH]1)NC(=O)[C@@H](CC(=O)NO)CC(C)C` showed an IC50 in assay [2] of 0.027 µM. For the compound `O=C(NO)C1CN(C(=O)c2ccccc2)CCCN1C(=O)/C=C/c1ccc(O)c(O)c1` (stereo unspecified), the IC50 with A549 is 8.2 µM. In assay [1], `O=C(NCc1ccco1)Nc1c[nH]c2cccnc2c1=O` had an IC50 of 5 µM. On to `c1cc2nc(c1)CNCCNCCNCCNC2`, for which the inhibition in assay [3] and in assay [6] was 100% throughout. In addition, the inhibition entry in assay [4] and in assay [5] was “Active” in each case.

Take `Cc1cc(=O)c(O)c(C(=O)NCc2ccc(-c3ccc(C#N)cc3)cc2)o1`: in assay [1], the IC50 is 9.3 µM.
